Assay: Kill rate of peracetic acid 400-660 ppm with and without adjuvant
Type: cell-based
Details: peracetic acid 400-660 ppm in aqueous solution
Text: Use of oxidative lysing agents such as peracetic acid in aqueous solution at concentration(s) ranging from 400-660 ppm provided only moderate kill rates with log reductions of 4-5.5. However, use of peracetic acid at the same concentrations with the addition of the adjuvant herein described produced improved kill rates up to complete destruction of the species with log reductions of 6 or recovery rates of 0.

For `CC(=O)OO` [peracetic acid], the log reductions was 4-5.5 log.
